Measurements as given in patent US7651995B2, “Absorption enhancers such as e.g. BHT, BHA or propyl gallate” (Axcess Limited, priority 2003, dated 2010).

System: Caco-2 cells
Assay: Trans-epithelial electrical resistance (TEER) across Caco-2 cell monolayer
Assay type: cell-based, human
Details: Caco-2 monolayer; for TEER 15 minutes after addition: fall >50% of initial value considered significant; for TEER before addition: four replicates
Protocol: Caco-2 cells (a cell line derived from human colon adenocarcinoma) are grown as a confluent mono-layer on the surface of a porous membrane (pore size 0.4 μm, surface area 0.33 cm^2) separating two aqueous compartments, the upper compartment filled with 200 μl of culture medium, and the lower compartment containing 600 μl of the culture medium. Electrical resistance across the mono-layer is measured using an epithelial voltohmeter connected to electrodes inserted into the medium on either side of the mono-layer in the upper and lower compartments. This trans-epithelial electrical resistance (TEER) is measured immediately before, and fifteen minutes after the addition of aromatic alcohols to the upper compartment (typical results are given in the table below). Fall in TEER is considered indicative of the increased flow of materials (including bulk fluid phase) across the cell monolayer. Falls of greater than 50% of the initial value are considered significant. Reducing the concentration tends to reduce the effect observed.

[1] = agent 0.3 mg/ml in upper compartment
[2] = baseline immediately before addition of agent at 0.3 mg/ml

| SMILES | TEER 15 minutes after addition [1] [ohm · cm^2] | TEER before addition [2] [ohm · cm^2] | TEER 15 minutes after addition (agent 0.2 mg/ml in upper compartment) [ohm · cm^2] | TEER 15 minutes after addition (agent 13 mg/ml in upper compartment) [ohm · cm^2] | TEER before addition (baseline immediately before addition of agent at 0.2 mg/ml) [ohm · cm^2] | TEER before addition (baseline immediately before addition of agent at 13 mg/ml) [ohm · cm^2] |
| --- | --- | --- | --- | --- | --- | --- |
| COc1ccc(O)c(C(C)(C)C)c1 [Butylated hydroxy anisole, butylated hydroxy anisole] | 183 | 564 | – | – | – | – |
| Cc1cc(C(C)(C)C)c(O)c(C(C)(C)C)c1 [Butylated hydroxy toluene, butylated hydroxy toluene] | 194 | 633 | – | – | – | – |
| CCCOC(=O)c1cc(O)c(O)c(O)c1 [Propyl gallate, propyl gallate] | – | – | 629 | −0.6 | 667 | 494 |
